Assay results as given in the supplement of paper PMC10307832.

Key:
Experiment in all cases: relative viability (nuclei count vs DMSO), 5 days (fraction); higher = more cells survive
LCLC-103H = test system: LCLC-103H
In short: (§1)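 Values are medians from duplicate plates. Each reflects relative viability, defined as the nuclei count of treated wells over that of vehicle wells. Lung cancer cell lines in 1536-well plates were pin-tool dosed one day after seeding with one drug alone or with a fixed anchor-drug dose plus five library-drug doses (not always all listed) in √10 steps, then fixed, stained and imaged at 4× after 5 days.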

SK-MES-1 = test system: SK-MES-1
In short: as §1

LU99A = test system: LU99A
In short: as §1

ChaGo-K-1 = test system: ChaGo-K-1
In short: as §1

NCI-H1650 = test system: NCI-H1650
In short: as §1

LXF-289 = test system: LXF-289
In short: as §1

A-427 = test system: A-427
In short: as §1

NCI-H2347 = test system: NCI-H2347
In short: as §1

NCI-H358 = test system: NCI-H358
In short: as §1

NCI-H727 = test system: NCI-H727
In short: as §1

NCI-H1975 = test system: NCI-H1975
In short: as §1

NCI-H650 = test system: NCI-H650
In short: as §1

CAL-12T = test system: CAL-12T
In short: as §1

NCI-H1993 = test system: NCI-H1993
In short: as §1

COR-L 105 = test system: COR-L 105
In short: as §1

NCI-H2009 = test system: NCI-H2009
In short: as §1

HOP-62 = test system: HOP-62
In short: as §1

NCI-H1666 = test system: NCI-H1666
In short: as §1

NCI-H460 = test system: NCI-H460
In short: as §1

BEN = test system: BEN
In short: as §1

EPLC-272H = test system: EPLC-272H
In short: as §1

NCI-H441 = test system: NCI-H441
In short: as §1

Nc1cccc2c1CN(C1CCC(=O)NC1=O)C2=O (stereo not drawn) [Lenalidomide] + C[C@@H](Oc1cc(-c2cnn(C3CCNCC3)c2)cnc1N)c1c(Cl)ccc(F)c1Cl [Crizotinib] (partner 1 µM) was tested, and the relative viability (LCLC-103H; first compound 0.253 µM) was 1.03, the relative viability (LCLC-103H; first compound 0.8 µM) was 0.965 and the relative viability (LCLC-103H; first compound 2.53 µM) was 1.05. The relative viability (LCLC-103H; first compound 8 µM) was 0.904, the relative viability (SK-MES-1; first compound 0.253 µM) was 1 and the relative viability (SK-MES-1; first compound 0.8 µM) was 1.04. It also gave a relative viability (SK-MES-1; first compound 2.53 µM) of 0.972, a relative viability (SK-MES-1; first compound 8 µM) of 0.974 and a relative viability (LU99A; first compound 0.253 µM) of 0.525. It also gave a relative viability (LU99A; first compound 0.8 µM) of 0.517, a relative viability (LU99A; first compound 2.53 µM) of 0.559 and a relative viability (LU99A; first compound 8 µM) of 0.54. For the same molecule, the relative viability (ChaGo-K-1; first compound 0.253 µM) was 1.1, the relative viability (ChaGo-K-1; first compound 2.53 µM) was 1.31 and the relative viability (ChaGo-K-1; first compound 8 µM) was 1.28. The relative viability (NCI-H1650; first compound 0.253 µM) was 0.922, the relative viability (NCI-H1650; first compound 0.8 µM) was 1.03 and the relative viability (NCI-H1650; first compound 2.53 µM) was 1.11. For the same molecule, the relative viability (NCI-H1650; first compound 8 µM) was 1.17, the relative viability (LXF-289; first compound 0.253 µM) was 0.831 and the relative viability (LXF-289; first compound 0.8 µM) was 0.836. The relative viability (LXF-289; first compound 2.53 µM) was 0.919, the relative viability (LXF-289; first compound 8 µM) was 0.983 and the relative viability (A-427; first compound 0.253 µM) was 0.833. The relative viability (A-427; first compound 2.53 µM) was 0.891, the relative viability (A-427; first compound 8 µM) was 0.903 and the relative viability (NCI-H2347; first compound 0.253 µM) was 0.779. It also gave a relative viability (NCI-H2347; first compound 0.8 µM) of 0.674, a relative viability (NCI-H2347; first compound 2.53 µM) of 0.83 and a relative viability (NCI-H2347; first compound 8 µM) of 0.573. For the same molecule, the relative viability (NCI-H358; first compound 0.253 µM) was 0.667, the relative viability (NCI-H358; first compound 0.8 µM) was 0.592 and the relative viability (NCI-H358; first compound 2.53 µM) was 0.541. For the same molecule, the relative viability (NCI-H358; first compound 8 µM) was 0.712, the relative viability (NCI-H727; first compound 0.253 µM) was 0.83 and the relative viability (NCI-H727; first compound 2.53 µM) was 0.894. The relative viability (NCI-H727; first compound 8 µM) was 0.952, the relative viability (NCI-H1975; first compound 0.253 µM) was 1.03 and the relative viability (NCI-H1975; first compound 0.8 µM) was 0.984. For the same molecule, the relative viability (NCI-H1975; first compound 2.53 µM) was 1.15, the relative viability (NCI-H1975; first compound 8 µM) was 1.01 and the relative viability (NCI-H650; first compound 0.253 µM) was 0.755. The relative viability (NCI-H650; first compound 2.53 µM) was 0.863, the relative viability (NCI-H650; first compound 8 µM) was 0.809 and the relative viability (CAL-12T; first compound 0.253 µM) was 0.617. For the same molecule, the relative viability (CAL-12T; first compound 0.8 µM) was 0.587, the relative viability (CAL-12T; first compound 2.53 µM) was 0.692 and the relative viability (CAL-12T; first compound 8 µM) was 0.857. The relative viability (NCI-H1993; first compound 0.253 µM) was 0.626, the relative viability (NCI-H1993; first compound 0.8 µM) was 0.852 and the relative viability (NCI-H1993; first compound 2.53 µM) was 0.761. It also gave a relative viability (NCI-H1993; first compound 8 µM) of 0.777, a relative viability (COR-L 105; first compound 0.253 µM) of 0.905 and a relative viability (COR-L 105; first compound 0.8 µM) of 0.716. For the same molecule, the relative viability (COR-L 105; first compound 2.53 µM) was 0.986, the relative viability (COR-L 105; first compound 8 µM) was 1.12 and the relative viability (NCI-H2009; first compound 0.253 µM) was 1.07. For the same molecule, the relative viability (NCI-H2009; first compound 0.8 µM) was 1.03, the relative viability (NCI-H2009; first compound 2.53 µM) was 1.12 and the relative viability (NCI-H2009; first compound 8 µM) was 1.1. For the same molecule, the relative viability (HOP-62; first compound 0.253 µM) was 0.859, the relative viability (HOP-62; first compound 0.8 µM) was 0.507 and the relative viability (HOP-62; first compound 2.53 µM) was 0.938. The relative viability (HOP-62; first compound 8 µM) was 0.74, the relative viability (NCI-H1666; first compound 0.253 µM) was 0.973 and the relative viability (NCI-H1666; first compound 0.8 µM) was 0.807. It also gave a relative viability (NCI-H1666; first compound 2.53 µM) of 1.19, a relative viability (NCI-H1666; first compound 8 µM) of 1.11 and a relative viability (NCI-H460; first compound 0.253 µM) of 0.807. The relative viability (NCI-H460; first compound 0.8 µM) was 1.06, the relative viability (NCI-H460; first compound 2.53 µM) was 1.01 and the relative viability (NCI-H460; first compound 8 µM) was 0.929. The relative viability (BEN; first compound 0.253 µM) was 1.04, the relative viability (BEN; first compound 0.8 µM) was 0.642 and the relative viability (BEN; first compound 2.53 µM) was 1.07. The relative viability (BEN; first compound 8 µM) was 0.85, the relative viability (EPLC-272H; first compound 0.253 µM) was 0.838 and the relative viability (EPLC-272H; first compound 2.53 µM) was 0.802. For the same molecule, the relative viability (EPLC-272H; first compound 8 µM) was 0.8, the relative viability (NCI-H441; first compound 0.253 µM) was 0.612 and the relative viability (NCI-H441; first compound 0.8 µM) was 0.693. For the same molecule, the relative viability (NCI-H441; first compound 2.53 µM) was 0.726 and the relative viability (NCI-H441; first compound 8 µM) was 0.778.
